Test results published in patent US9624229B2, “Pyrimidine-2-amine compounds and their use as inhibitors of JAK kinases” (Rigel Pharmaceuticals, Inc., priority 2008, dated 2017).
Where two headings read alike, the source gives them in different places.

Target: Ba/F3 V617F cells (Homo sapiens, UniProt O60674, V617F, cells depend on it)
Experiment: Proliferation assay (Cell Titer-Glo, 72 h) utilizing Ba/F3 V617F cells
Type: cell-based, mouse
Conditions: Ba/F3 V617F cells, proliferation
Method: Ba/F3 V617F cells are maintained and plated in RPMI with 10% FBS. Plating density for these cells is 1×10^5 cells/mL.
The cells were resuspended in a corresponding medium at a required cell density (see above). 100μ of cell suspension was added to each well of a flat bottom 96 well white plate. The compound was serially diluted in DMSO from 5 mM in 3-fold dilutions, and then diluted 1:250 in the RPMI 1640 medium containing 5% FBS and pen/strep. 100 μL of resulting 2× compound solution was added per well in duplicate and the cells were allowed to proliferate for 72 hours at 37° C.
Proliferation was measured using Cell Titer-Glo. The substrate was thawed and allowed to come to ambient temperature. After removal of top 100 μL of medium from each well, 100 μL of the premixed Cell Titer-Glo reagent was added to each well. The plates were mixed on an orbital shaker for three minutes to induce lysis and incubated at ambient temperature for an additional five minutes to allow the signal to equilibrate. The Luminescence was read on the Wallac Plate Reader.
The results of the ability of the compounds of the invention to inhibit JAK2 activity, when tested in the above assay utilizing Ba/F3 V617F cells, are shown in the following Tables 2-3 wherein the level of activity (i.e., the IC50) for each compound is indicated in Tables 2-3. The compound numbers in Tables 2-3 refers to the compounds disclosed herein as being prepared by the methods disclosed herein: […]

[1] = level of activity to inhibit JAK2, read-out: IC50 (the source's name)

Ba/F3 V617F cells, sequence (O60674 whole entry V617F): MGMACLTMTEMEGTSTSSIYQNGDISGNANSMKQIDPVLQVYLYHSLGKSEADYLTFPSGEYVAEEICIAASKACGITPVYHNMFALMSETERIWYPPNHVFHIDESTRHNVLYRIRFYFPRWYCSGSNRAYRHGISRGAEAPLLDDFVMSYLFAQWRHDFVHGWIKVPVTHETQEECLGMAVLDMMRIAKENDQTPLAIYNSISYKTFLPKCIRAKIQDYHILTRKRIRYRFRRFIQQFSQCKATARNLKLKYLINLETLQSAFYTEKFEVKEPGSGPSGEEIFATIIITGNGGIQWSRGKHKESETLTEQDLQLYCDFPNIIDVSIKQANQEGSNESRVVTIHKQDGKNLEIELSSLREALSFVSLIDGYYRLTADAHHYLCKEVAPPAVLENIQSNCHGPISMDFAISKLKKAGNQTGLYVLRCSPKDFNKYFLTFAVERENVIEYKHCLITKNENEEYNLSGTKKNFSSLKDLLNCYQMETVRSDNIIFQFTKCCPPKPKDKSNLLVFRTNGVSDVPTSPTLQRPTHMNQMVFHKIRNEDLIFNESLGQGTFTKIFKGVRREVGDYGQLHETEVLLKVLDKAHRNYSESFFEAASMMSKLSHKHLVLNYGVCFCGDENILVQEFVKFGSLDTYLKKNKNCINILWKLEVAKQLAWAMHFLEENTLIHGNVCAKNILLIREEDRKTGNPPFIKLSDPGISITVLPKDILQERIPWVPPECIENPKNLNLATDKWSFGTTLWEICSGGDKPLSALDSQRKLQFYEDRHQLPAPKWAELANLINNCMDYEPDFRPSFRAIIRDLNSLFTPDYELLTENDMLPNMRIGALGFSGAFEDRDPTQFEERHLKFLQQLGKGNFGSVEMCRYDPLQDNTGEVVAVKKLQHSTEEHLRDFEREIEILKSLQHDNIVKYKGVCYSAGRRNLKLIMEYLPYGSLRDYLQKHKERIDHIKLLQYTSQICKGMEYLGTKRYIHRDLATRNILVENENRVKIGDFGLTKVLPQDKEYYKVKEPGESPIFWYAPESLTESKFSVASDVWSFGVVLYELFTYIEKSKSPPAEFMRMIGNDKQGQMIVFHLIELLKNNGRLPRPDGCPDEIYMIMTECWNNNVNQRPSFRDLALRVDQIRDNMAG

| GI50 (level of activity given as class symbol, read-out: IC50 (the source's name)) [nM] | GI50 [1] [nM] | SMILES |
| --- | --- | --- |
| < 1000 | – | Cc1cc(Nc2nccc(-c3ccc(N4C[C@@H](C)O[C@@H](C)C4)nc3)n2)ccc1N1C[C@@H]2C[C@H]1CO2 (relative stereo) [compound 201] |
| – | < 1000 | Cc1cc(Nc2nccc(-c3ccc(N(C)C)nc3)n2)ccc1N1C[C@@H]2C[C@H]1CN2C [compound 1, 4-(6-(N,N-dimethylamino)pyridin-3-yl)-N-(3-methyl-4-((1S,4S)-5-methyl-2,5-diazabicyclo[2.2.1]heptan-2-yl)phenyl)pyrimidin-2-amine] |
| – | < 1000 | Cc1cc(Nc2ncc(C)c(-c3ccc(N(C)C)nc3)n2)ccc1N1C[C@@H]2C[C@H]1CN2C [compound 2, 4-(6-(N,N-dimethylamino)pyridin-3-yl)-5-methyl-N-(3-methyl-4-((1S,4S)-5-methyl-2,5-diazabicyclo[2.2.1]heptan-2-yl)phenyl)pyrimidin-2-amine] |
| – | 1000 to 10000 | Cc1cc(Nc2ncc(C(F)(F)F)c(-c3ccc(N(C)C)nc3)n2)ccc1N1C[C@@H]2C[C@H]1CN2C [compound 3, 4-(6-(N,N-dimethylamino)pyridin-3-yl)-5-trifluoromethyl-N-(3-methyl-4-((1S,4S)-5-methyl-2,5-diazabicyclo[2.2.1]heptan-2-yl)phenyl)pyrimidin-2-amine] |
| – | < 1000 | Cc1cc(Nc2ncc(F)c(-c3ccc(N(C)C)nc3)n2)ccc1N1C[C@@H]2C[C@H]1CN2C [compound 4, 4-(6-(N,N-dimethylamino)pyridin-3-yl)-5-fluoro-N-(3-methyl-4-((1S,4S)-5-methyl-2,5-diazabicyclo[2.2.1]heptan-2-yl)phenyl)pyrimidin-2-amine] |
| – | 1000 to 10000 | CN(C)c1ccc(-c2nc(Nc3ccc(N4C[C@@H]5C[C@H]4CN5C)c(F)c3)ncc2F)cn1 [compound 5, 4-(6-(N,N-dimethylamino)pyridin-3-yl)-5-fluoro-N-(3-fluoro-4-((1S,4S)-5-methyl-2,5-diazabicyclo[2.2.1]heptan-2-yl)phenyl)pyrimidin-2-amine] |
| – | < 1000 | Cc1cnc(Nc2ccc(N3C[C@@H]4C[C@H]3CN4C)c(F)c2)nc1-c1ccc(N(C)C)nc1 [compound 6, 4-(6-(N,N-dimethylamino)pyridin-3-yl)-5-methyl-N-(3-fluoro-4-((1S,4S)-5-methyl-2,5-diazabicyclo[2.2.1]heptan-2-yl)phenyl)pyrimidin-2-amine] |
| – | < 1000 | CN(C)c1ccc(-c2ccnc(Nc3ccc(N4C[C@@H]5C[C@H]4CN5C)c(F)c3)n2)cn1 [compound 7, 4-(6-(N,N-dimethylamino)pyridin-3-yl)-N-(3-fluoro-4-((1S,4S)-5-methyl-2,5-diazabicyclo[2.2.1]heptan-2-yl)phenyl)pyrimidin-2-amine] |
| – | < 1000 | Cc1cc(Nc2nccc(-c3cnc4c(c3)OCCN4C)n2)ccc1N1C[C@@H]2C[C@H]1CN2C [compound 8, 4-(4-methyl-3,4-dihydro-2H-pyrido[3,2-b][1,4]oxazin-7-yl)-N-(3-methyl-4-((1S,4S)-5-methyl-2,5-diazabicyclo[2.2.1]heptan-2-yl)phenyl)pyrimidin-2-amine] |
| – | < 1000 | CN1CCOc2cc(-c3ccnc(Nc4ccc(N5C[C@@H]6C[C@H]5CN6C)c(F)c4)n3)cnc21 [compound 9, 4-(4-methyl-3,4-dihydro-2H-pyrido[3,2-b][1,4]oxazin-7-yl)-N-(3-fluoro-4-((1S,4S)-5-methyl-2,5-diazabicyclo[2.2.1]heptan-2-yl)phenyl)pyrimidin-2-amine] |
| – | < 1000 | Cc1cc(Nc2nccc(-c3ccc(N4CCOCC4)nc3)n2)ccc1N1C[C@@H]2C[C@H]1CN2C [compound 10, 4-(6-(morpholin-4-yl)pyridin-3-yl)-N-(3-methyl-4-((1S,4S)-5-methyl-2,5-diazabicyclo[2.2.1]heptan-2-yl)phenyl)pyrimidin-2-amine] |
| – | 1000 to 10000 | Cc1cc(Nc2nccc(-c3ccc(N4C[C@@H]5C[C@H]4CN5C)nc3)n2)ccc1N1CCN(C)CC1 [compound 12, 4-(6-((1S,4S)-5-methyl-2,5-diazabicyclo-[2.2.1]-heptan-2-yl)pyridin-3-yl)-N-(3-methyl-4-(4-methyl-piperazin-1-yl)phenyl)-pyrimidin-2-amine] |
| – | < 1000 | Cc1cc(Nc2nccc(-c3ccc(N4C[C@@H]5C[C@H]4CN5c4ccc(F)cc4)nc3)n2)ccc1N1CCN(C)CC1 [compound 13, 4-(6-((1S,4S)-5-(4-fluorophenyl)-2,5-diazabicyclo-[2.2.1]-heptan-2-yl)pyridin-3-yl)-N-(3-methyl-4-(4-methyl-piperazin-1-yl)phenyl)-pyrimidin-2-amine] |
| – | < 1000 | Cc1cc(Nc2nccc(-c3ccc(N(C)C)cc3)n2)ccc1N1C[C@@H]2C[C@H]1CN2C [compound 14, 4-(4-(N,N-dimethylamino)phenyl)-N-(3-methyl-4-((1S,4S)-5-methyl-2,5-diazabicyclo[2.2.1]heptan-2-yl)phenyl)pyrimidin-2-amine] |
| – | 1000 to 10000 | CN(C)c1ccc(-c2ccnc(Nc3ccc(N4C[C@@H]5C[C@H]4CN5C)c(F)c3)n2)cc1 [compound 15, 4-(4-(N,N-dimethylamino)phenyl)-N-(3-fluoro-4-((1S,4S)-5-methyl-2,5-diazabicyclo[2.2.1]heptan-2-yl)phenyl)pyrimidin-2-amine] |
| – | < 1000 | CC(=O)N1CCN(c2ccc(-c3ccnc(Nc4ccc(N5C[C@@H]6C[C@H]5CN6C)c(F)c4)n3)cn2)CC1 [compound 16, 4-(6-(4-acetylpiperazin-1-yl)pyridin-3-yl)-N-(3-fluoro-4-((1S,4S)-5-methyl-2,5-diazabicyclo[2.2.1]heptan-2-yl)phenyl)pyrimidin-2-amine] |
| – | < 1000 | CN1C[C@@H]2C[C@H]1CN2c1ccc(Nc2nccc(-c3cnc4c(c3)OC(C)(C)C(=O)N4)n2)cc1F [compound 19, 4-(2,2-dimethyl-3-oxo-3,4-dihydro-2H-pyrido[3,2-b][1,4]oxazin-7-yl)-N-(3-fluoro-4-((1S,4S)-5-methyl-2,5-diazabicyclo[2.2.1]heptan-2-yl)phenyl)pyrimidin-2-amine] |
| – | < 1000 | Cc1cc(Nc2nccc(-c3ccc4cc[nH]c4c3)n2)ccc1N1C[C@@H]2C[C@H]1CN2C [compound 21, 4-(1H-indol-6-yl)-N-(3-methyl-4-((1S,4S)-5-methyl-2,5-diazabicyclo[2.2.1]heptan-2-yl)phenyl)pyrimidin-2-amine] |
| – | < 1000 | Cc1cc(Nc2nccc(-c3cnc4[nH]ccc4c3)n2)ccc1N1C[C@@H]2C[C@H]1CN2C [compound 22, 4-(1H-pyrrolo[2,3-b]pyridin-5-yl)-N-(3-methyl-4-((1S,4S)-5-methyl-2,5-diazabicyclo[2.2.1]heptan-2-yl)phenyl)pyrimidin-2-amine] |
| – | < 1000 | CN1C[C@@H]2C[C@H]1CN2c1ccc(Nc2nccc(-c3cnc4[nH]ccc4c3)n2)cc1F [compound 23, 4-(1H-pyrrolo[2,3-b]pyridin-5-yl)-N-(3-fluoro-4-((1S,4S)-5-methyl-2,5-diazabicyclo[2.2.1]heptan-2-yl)phenyl)pyrimidin-2-amine] |
| – | < 1000 | CCN1C[C@@H]2C[C@H]1CN2c1ccc(Nc2nccc(-c3ccc(N(C)C)nc3)n2)cc1C [compound 24, 4-(6-(dimethylamino)pyridin-3-yl)-N-(3-methyl-4-((1S,4S)-5-ethyl-2,5-diazabicyclo[2.2.1]heptan-2-yl)phenyl)pyrimidin-2-amine] |
| – | < 1000 | CCN1C[C@@H]2C[C@H]1CN2c1ccc(Nc2nccc(-c3ccc(N4CCOCC4)nc3)n2)cc1C [compound 25, 4-(6-(morpholin-4-yl)pyridin-3-yl)-N-(3-methyl-4-((1S,4S)-5-ethyl-2,5-diazabicyclo[2.2.1]heptan-2-yl)phenyl)pyrimidin-2-amine] |
| – | < 1000 | CCNC(=O)N1C[C@@H]2C[C@H]1CN2c1ccc(Nc2nccc(-c3ccc(N4CCOCC4)nc3)n2)cc1C [compound 26, 4-(6-(morpholin-4-yl)pyridin-3-yl)-N-(3-methyl-4-((1S,4S)-5-((ethylamino)carbonyl)-2,5-diazabicyclo[2.2.1]heptan-2-yl)phenyl)pyrimidin-2-amine] |
| – | < 1000 | Cc1cc(Nc2nccc(-c3cnc4c(c3)OC(C)(C)C(=O)N4)n2)ccc1N1C[C@@H]2C[C@H]1CO2 [compound 27, 4-(2,2-dimethyl-3-oxo-3,4-dihydro-2H-pyrido[3,2-b][1,4]oxazin-7-yl)-N-(3-methyl-4-((1S,4S)-5-oxa-2-azabicyclo[2.2.1]heptan-2-yl)phenyl)pyrimidin-2-amine] |
| – | < 1000 | CCC(=O)N1C[C@@H]2C[C@H]1CN2c1ccc(Nc2nccc(-c3cnc4c(c3)OC(C)(C)C(=O)N4)n2)cc1C [compound 28, 4-(2,2-dimethyl-3-oxo-3,4-dihydro-2H-pyrido[3,2-b][1,4]oxazin-7-yl)-N-(3-methyl-4-((1S,4S)-5-(ethylcarbonyl)-2,5-diazabicyclo[2.2.1]heptan-2-yl)phenyl)pyrimidin-2-amine] |
| – | < 1000 | Cc1cc(Nc2nccc(-c3cnc4c(c3)OC(C)(C)C(=O)N4)n2)ccc1N1C[C@@H]2C[C@H]1CN2S(C)(=O)=O [compound 29, 4-(2,2-dimethyl-3-oxo-3,4-dihydro-2H-pyrido[3,2-b][1,4]oxazin-7-yl)-N-(3-methyl-4-((1S,4S)-5-(methylsulfonyl)-2,5-diazabicyclo[2.2.1]heptan-2-yl)phenyl)pyrimidin-2-amine] |
